The text below walks through data of publication PMC4434603 (Journal of biomolecular screening, 2011).

One test addresses T1, His-RORα-LBD (Homo sapiens, UniProt P35398).
T1 sequence (P35398 with tags, fused parts or gaps): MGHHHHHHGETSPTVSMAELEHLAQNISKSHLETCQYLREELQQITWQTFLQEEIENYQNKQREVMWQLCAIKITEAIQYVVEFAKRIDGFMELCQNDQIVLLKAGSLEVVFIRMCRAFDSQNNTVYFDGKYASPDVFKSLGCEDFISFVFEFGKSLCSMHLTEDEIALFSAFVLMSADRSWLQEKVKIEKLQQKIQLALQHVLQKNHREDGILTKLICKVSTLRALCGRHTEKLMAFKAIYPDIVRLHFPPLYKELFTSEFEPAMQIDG
Description: HTS LOPAC AlphaScreen screen and compound response curves. The format is biochemical. As to conditions: CRC; for EC50: read-out: Final EC50, 50 µM top, 3-fold dilutions, 10 points, triplicate.

In test [1] the target is T2, Biotin-PGC-1α NR1 peptide (biotin on the N-terminus).
T2 peptide: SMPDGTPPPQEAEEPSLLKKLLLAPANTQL
Description: AlphaScreen or HTRF.

As for `CCCCCCC(C)(C)c1ccc([C@@H]2C[C@H](O)CC[C@H]2CCCO)c(O)c1` [C 1112], on His-RORα-LBD, the “Hill Slope” value was 1.73 and the EC50 worked out at 224 nM.
Take `CC(=O)[C@H]1CC[C@H]2[C@@H]3CCC4=CC(=O)CC[C@]4(C)[C@H]3CC[C@]12C` [P 0130]: on His-RORα-LBD, the “Hill Slope” value is listed as 1.07 and the EC50 was 833 nM.
As for `CC(=O)[C@H]1CCC2C3CC[C@H]4C[C@H](O)CC[C@]4(C)C3CC[C@@]21C` (stereo partly drawn) [P 8887], at His-RORα-LBD, the “Hill Slope” value amounted to 0.28 and the EC50 is 331 nM.
For `C[C@]12C=CC(=O)C=C1CC[C@@H]1C2=CC[C@]2(C)[C@@H](C(=O)CN3CCN(c4cc(N5CCCC5)nc(N5CCCC5)n4)CC3)CC[C@@H]12.O=C(O)/C=C\C(=O)O` [U 5882], on His-RORα-LBD, the “Hill Slope” value was 1.79 and the EC50 came to 393 nM.

B1: His-RORα-LBD (262–523) (domain or fragment)
chain: GETSPTVSMAELEHLAQNISKSHLETCQYLREELQQITWQTFLQEEIENYQNKQREVMWQLCAIKITEAIQYVVEFAKRIDGFMELCQNDQIVLLKAGSLEVVFIRMCRAFDSQNNTVYFDGKYASPDVFKSLGCEDFISFVFEFGKSLCSMHLTEDEIALFSAFVLMSADRSWLQEKVKIEKLQQKIQLALQHVLQKNHREDGILTKLICKVSTLRALCGRHTEKLMAFKAIYPDIVRLHFPPLYKELFTSEFEPAMQIDG
B1 returned a 50% effective concentration (EC50) in test [1] of 36 nM.
